Where a name gives a salt, the structure may show the parent alone.
Assays:
[1] = tested on: HCT116; conditions: 72 h
Summary of the method: (§1)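 After seeding at 250 cells per well in 1536-well plates, HCT116 cells were given 5 h to attach. CellTiter-Glo luminescence, scaled to 0% for vehicle and -100% for positive control, was pattern-corrected. Fitting with a four-parameter Hill model produced IC50 and maximal efficacy.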

[2] = tested on: HCT116; assay: efficacy (maximum % inhibition of viability vs DMSO); higher = more cytotoxic; conditions: 72 h
Summary of the method: as §1

Row | SMILES | IC50 cell viability ([1]; ICRF193 0 nM) | IC50 cell viability ([1]; ICRF193 200 nM) | efficacy ([2]; ICRF193 200 nM) | efficacy ([2]; ICRF193 0 nM)
1 | CNCC[C@@H](Oc1ccccc1C)c1ccccc1 [Atomoxetine hydrochloride] | > 45.8 µM | 29.1 µM | 81.3% | 
2 | COc1ccc(C(C)(C)C)cc1CN[C@H]1C2CCN(CC2)[C@H]1C(c1ccccc1)c1ccccc1 [Maropitant] | 18.3 µM | 18.3 µM | 96% | 60.3%
3 | CO[C@H](C(=O)[C@@H](O)[C@@H](C)O)[C@@H]1Cc2cc3cc(O[C@H]4C[C@@H](O[C@@H]5C[C@@H](O)[C@H](O)[C@@H](C)O5)[C@H](O)[C@@H](C)O4)c(C)c(O)c3c(O)c2C(=O)[C@H]1O[C@H]1C[C@@H](O[C@@H]2C[C@@H](O)[C@@H](O[C@@H]3C[C@](C)(O)[C@H](O)[C@@H](C)O3)[C@@H](C)O2)[C@H](O)[C@@H](C)O1 [Plicamycin] | 0.0651 µM | 0.058 µM | 83.7% | 82.3%
4 | CC[C@@H](C(=O)O)[C@@H]1O[C@@H]([C@@H](C)[C@H](O)[C@H](C)C(=O)[C@H](CC)[C@H]2O[C@]3(C=C[C@@H](O)[C@]4(CC[C@@](C)([C@H]5CC[C@](O)(CC)[C@H](C)O5)O4)O3)[C@H](C)C[C@@H]2C)[C@@H](C)C[C@@H]1C [Narasin] | 3.66 µM | 2.91 µM | 94.5% | 80.5%
5 | CC/C(=C(\c1ccccc1)c1ccc(OCCN(C)C)cc1)c1ccccc1 [Tamoxifen] | 23.1 µM | 18.3 µM | 93% | 101%
6 | Cc1cc(-n2c(=O)[nH]c(=O)n(C)c2=O)ccc1Oc1ccc(S(=O)(=O)C(F)(F)F)cc1 [Toltrazuril (sulfone)] | 7.3 µM | > 45.8 µM |  | 44.9%
7 | COc1cc2ncnc(Nc3ccc(F)c(Cl)c3)c2cc1OCCCN1CCOCC1 [Gefitinib] | 20.6 µM | 29.1 µM | 98.2% | 86.4%

Second part, led by results:

Row | IC50 cell viability ([1]; ICRF193 0 nM) | IC50 cell viability ([1]; ICRF193 200 nM) | SMILES | efficacy ([2]; ICRF193 200 nM) | efficacy ([2]; ICRF193 0 nM)
8 | > 45.8 µM | 29.1 µM | Cc1nc2c([nH]1)-c1ccccc1N(C(=O)c1ccc(NC(=O)c3ccccc3-c3ccccc3)cc1)CC2 [Conivaptan hydrochloride] | 60% | 
9 | 29.1 µM | 29.1 µM | Oc1c(I)cc(Cl)c2cccnc12 [Clioquinol] | 98.1% | 99.1%
10 | 6.51 µM | > 45.8 µM | CCOc1ccc(Cc2nccc3cc(OCC)c(OCC)cc23)cc1OCC [Ethaverine hydrochloride] |  | 61.3%
11 | 29.1 µM | 23.1 µM | CC(C)(C)c1ccc(C(=O)CCCN2CCC(OC(c3ccccc3)c3ccccc3)CC2)cc1 [Ebastine] | 112% | 115%

— the supplement of paper PMC12137928
